# Tests used:
# Hydrilla verticillata = assay: Greenhouse test, static exposure of Hydrilla verticillata to quinclorac in water columns; format: in vivo; conditions: for Hydrilla Shoot Length: static exposure, 11 weeks after treatment, control 30.4 cm, LSD at 0.05 = 11.5
# Procedure: To begin the experiment, PVC cylinders were filled and maintained with a volume of 4000 ml of dichlorinated water that was maintained at room temperature (24° C.). To each cylinder, an established hydrilla plant (potted in sand mixture) was transferred into the water column. Hydrilla plants were selected for uniformity and length of shoot growth (approx 15 cm). Plants were allowed to equilibrate in the columns for 24 hrs prior to herbicide treatment. Experimental treatments included an untreated control, and quinclorac at 50, 250 and 500 ppb of actual acid equivalent of herbicide. Treatments were applied to water columns by the use of a pipette. Amount of herbicide applied was based on the total volume of the cylinders (4000 ml). After initial herbicide treatment, the water columns were gently stirred to ensure uniform distribution. Treatments were arranged as a completely random design with 3 replications. Each cylinder was considered the experimental unit. Greenhouse conditions were maintained at 24/18° C. (day/night) cycle for the duration of the experiment. Natural day length was supplemented with halogen lighting to provide a 14 hr photoperiod. Water level in the cylinders was periodically checked and maintained at the 4000 ml level for the duration of the study. After 11 weeks of exposure, hydrilla shoot lengths were measured to ascertain herbicide effects.
# [1] = system: Mixed population of submersed weed species: Hydrilla verticillata and Egeria densa; assay: Greenhouse test, static exposure of a mixed population of submersed weed species to quinmerac and quinclorac; format: in vivo; conditions: for Shoot Fresh / Shoot Length: static exposure, 12 weeks after treatment; for Shoot Fresh: control 6.8 g, LSD at 0.05 = 3.1; for Shoot Length: control 37.3 cm, LSD at 0.05 = 17.4
# Procedure: To begin the experiment, containers were filled and maintained with a volume of 4000 ml of distilled water that was maintained at room temperature (24° C.). To each container, established weed plants (potted in sand mixture) were transferred into the water column. Plants were selected for uniformity and length of shoot growth (approx 15 cm). Plants were allowed to equilibrate in the containers for 24 hrs prior to herbicide treatment. Experimental treatments included an untreated control, quinmerac at 100, 250, and 500 ppb, as well as, quinclorac at 250 ppb of actual acid equivalent of herbicide. Treatments were applied to water columns by the use of a pipette. Amount of herbicide applied was based on the total volume of the containers (4000 ml). After initial herbicide treatment, the water columns were gently stirred to ensure uniform distribution. Treatments were arranged as a completely random design with 3 replications. Each container was considered the experimental unit. Greenhouse conditions were maintained at 24/18° C. (day/night) cycle for the duration of the experiment. Natural day length was supplemented with halogen lighting to provide a 14 hr photoperiod. Water level in the containers was periodically checked and maintained at the 4000 ml level for the duration of the study. After 12 weeks of exposure, weed shoot length and fresh weights were measured to ascertain herbicide effects.
SMILES,Hydrilla Shoot Length (Hydrilla verticillata; 50 ppb acid equivalent),Hydrilla Shoot Length (Hydrilla verticillata; 250 ppb acid equivalent),Hydrilla Shoot Length (Hydrilla verticillata; 500 ppb acid equivalent),"Effect on the growth of hydrilla (Hydrilla verticillata; after the 11 week exposure period, 50-500 ppb)","Visual symptomology (Hydrilla verticillata; after the 11 week exposure period, intensity tended to be rate responsive)",Shoot Fresh ([1]; 250 ppb acid equivalent),Shoot Length ([1]; 250 ppb acid equivalent),"Reduction in both shoot length and fresh weight vs. the control ([1]; 250 ppb, 12 weeks of exposure)","Visual symptomology ([1]; 12 weeks of exposure, intensity tended to be rate responsive)",Shoot Fresh ([1]; 100 ppb acid equivalent),Shoot Length ([1]; 100 ppb acid equivalent),Shoot Fresh ([1]; 500 ppb acid equivalent),Shoot Length ([1]; 500 ppb acid equivalent),"Reduction in both shoot length and fresh weight vs. the control ([1]; 500 ppb, 12 weeks of exposure)"
"O=C(O)c1c(Cl)ccc2cc(Cl)cnc12 [Quinclorac, 3,7-dichloroquinoline-8-carboxylic acid]",15.0 cm,8.9 cm,6.5 cm,significant effect on the growth of hydrilla,reduction in plant vigour and auxinic-like twisting of leaf tissue,1.5 grams,15.7 cm,Significant reduction,–,–,–,–,–,–
"Cc1cnc2c(C(=O)O)c(Cl)ccc2c1 [Quinmerac, 7-chloro-3-methylquinoline-8-carboxylic acid]",–,–,–,–,–,0.5 grams,8.9 cm,Significant reduction,reduction in plant vigour and auxinic-like twisting of leaf tissue,5.1 grams,15.0 cm,0.1 grams,6.5 cm,Significant reduction

# From patent US9060516B2, “Method for controlling aquatic weeds” (BASF SE, priority 2005, dated 2015)
